Measurements from patent EP3574917A1, “ANTI-CANCER AGENT, METHOD FOR SCREENING FOR ANTI-CANCER AGENT, KIT FOR DETERMINATION OF EFFICACY ON CANCER, AND METHOD FOR DETERMINING EFFICACY ON CANCER” (University of Miyazaki, priority 2017, dated 2018).

Tests used:
Assay in all cases: cellular proliferative potential (cell counting kit-8)
Assay type in all cases: cell-based
U2OS = U2OS (NDRG2 hardly expressed), in the presence of AdOX, over time
Method: (§1) In the following Examples, HTLV-1-uninfected T-cell lymphocytic acute leukemia T-ALL (Jurkat and MOLT4), an HTLV-1-infected cell line (HUT102), an ATLL cell line (KOB), an osteosarcoma cell line (U2OS), and a uterine cancer cell line (HeLa) were used as cell lines. The cell lines described above were cultured in a RPM11640 or DMEM culture solution, to which 10% fetal bovine serum (FBS) supplemented or unsupplemented with IL2 (50 U/mL) was added, under 5% carbon dioxide at 37°C.
(§2) For each established cell line, 2 ×10^3 cells were cultured on a 96-well plate, and cell counting kit-8 (manufactured by DOJINDO CO., LTD) was added at a predetermined time. The number of cells was quantified based on an absorbance of 450 nm or 490 nm, to evaluate cellular proliferative potential.
(§3) In the cell lines of a solid cancer, the influence of the decreased expression of a PRMT5 gene was also evaluated in a manner similar to the manner of Example 2. The cellular proliferative potential of the parent lines, shluc cell lines, shPRMT5-3 cell lines, and shPRMT5-4 cell lines of U2OS and HeLa, and an influence on the cellular proliferative potential of a PRMT inhibitor were evaluated.

HeLa = HeLa (NDRG2 hardly expressed), in the presence of AdOX, over time
Method: as §1, §2, §3

Jurkat = details: without the decreased expression of NDRG2, AdOX added at start of culture
Method: as §1, §2
(§4) In addition to HUT102 and KOB, Jurkat and MOLT4 were cultured. At the time of the start of the culture, AdOX (manufactured by Sigma-Aldrich Co. LLC) as a PRMT5 inhibitor was added to each culture medium. Like the Examples 2 described above, cellular proliferative potential was evaluated.

KOB = KOB (NDRG2 hardly expressed), AdOX added to culture medium at start of culture, over time
Method: as §1, §2, §4

MOLT4 = details: MOLT4, without the decreased expression of NDRG2, AdOX added at start of culture
Method: as §1, §2, §4

HUT102 = HUT102 (NDRG2 hardly expressed), AdOX added to culture medium at start of culture, over time
Method: as §1, §2, §4

Nc1ncnc2c1ncn2[C@@H](C=O)O[C@@H](C=O)CO [AdOX, adenosine-2',3'-dialdehyde]
suppression of cell proliferation (U2OS): suppressed cell proliferation in a concentration-dependent manner
suppression of cell proliferation (HeLa): suppressed cell proliferation in a concentration-dependent manner
suppression of cell proliferation (Jurkat): not observed
suppression of cell proliferation (KOB): exhibited the suppression of cell proliferation in concentration-dependent manners
suppression of cell proliferation (MOLT4): not observed
suppression of cell proliferation (HUT102): exhibited the suppression of cell proliferation in concentration-dependent manners
